{
  "source": "paper PMC10981527",
  "about": "(Bioorganic & medicinal chemistry letters, 2024)",
  "key": {"[1]": {"conditions": "observed only at high concentrations; cited from earlier work"}, "RPMI-8226 cells": {"system": "RPMI-8226 cells", "conditions": "historical control; cited from earlier work"}, "[2]": {"biological_target": "T1, geranylgeranyl diphosphate synthase (GGDPS) (Homo sapiens, UniProt O95749)", "T1 sequence (O95749 1-300)": "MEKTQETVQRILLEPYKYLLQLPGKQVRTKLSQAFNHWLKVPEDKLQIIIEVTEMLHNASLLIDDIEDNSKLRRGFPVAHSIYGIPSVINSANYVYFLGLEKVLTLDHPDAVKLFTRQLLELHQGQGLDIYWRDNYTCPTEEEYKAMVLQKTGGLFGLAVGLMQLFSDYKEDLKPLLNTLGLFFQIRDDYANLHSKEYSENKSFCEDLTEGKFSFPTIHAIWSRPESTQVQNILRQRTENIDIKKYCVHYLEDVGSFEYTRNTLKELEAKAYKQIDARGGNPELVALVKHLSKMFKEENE", "conditions": "read-out: GGDPS IC50; historical control; cited from earlier work"}, "myeloma cells": {"system": "myeloma cells", "conditions": "cited from earlier work"}, "[3]": {"biological_target": "T1, geranylgeranyl diphosphate synthase (GGDPS)", "assay": "Enzyme assay utilizing recombinant GGDPS", "type": "biochemical"}, "[4]": {"system": "farnesyl diphosphate synthase (FDPS)", "conditions": "in words; cited from earlier work"}},
  "note": "Where two headings read alike, the source gives them in different places.",
  "data": [
    {"smiles": "CC(C)=CCC/C(C)=C/CC(C/C=C(\\C)CCC=C(C)C)(P(=O)(O)O)P(=O)(O)O", "note": "[Compound 3, digeranyl bisphosphonate]", "values": [
      {"measurement": "Concentration at which cellular activity was observed", "setting": "[1]", "result": "~ 10 μM"}
    ]},
    {"smiles": "CC(C)=CCC/C(C)=C\\CCn1cc(CC(C)(P(=O)([O-])[O-])P(=O)([O-])[O-])nn1.[Na+].[Na+].[Na+].[Na+]", "note": "[Compound 6]", "values": [
      {"measurement": "Cellular LEC (lowest effective concentration)", "setting": "RPMI-8226 cells", "result": 0.02, "unit": "µM"},
      {"measurement": "IC50", "setting": "[2]", "result": "125 ± 27", "unit": "nM"},
      {"measurement": "Cellular activity, lowest concentration", "setting": "myeloma cells", "result": 20, "unit": "nM"}
    ]},
    {"smiles": "CC(C)=CCC/C(C)=C/CCn1cc(CC(C)(P(=O)([O-])[O-])P(=O)([O-])[O-])nn1.[Na+].[Na+].[Na+].[Na+]", "note": "[Compound 7]", "values": [
      {"measurement": "IC50", "setting": "[2]", "result": "86 ± 22", "unit": "nM"},
      {"measurement": "Cellular activity, lowest concentration", "setting": "myeloma cells", "result": 25, "unit": "nM"}
    ]},
    {"smiles": "CC(C)=CCC/C(C)=C/Cn1cc(CC(N)(P(=O)(O)O)P(=O)(O)O)nn1", "note": "[Compound 18]", "values": [
      {"measurement": "GGDPS inhibitory activity in enzyme assay", "setting": "[3]", "result": "no activity"}
    ]},
    {"smiles": "CC(C)=CCC/C(C)=C/CCn1cc(CC(P(=O)([O-])[O-])P(=O)([O-])[O-])nn1.[Na+].[Na+].[Na+].[Na+]", "note": "[Compound 5]", "values": [
      {"measurement": "Specificity for GGDPS over FDPS", "setting": "[4]", "result": "high specificity"},
      {"measurement": "Cellular activity, lowest concentration", "setting": "myeloma cells; myeloma cells, mixture of olefin isomers", "result": 30, "unit": "nM"}
    ]}
  ]
}
